Where two headings read alike, the source gives them in different places.
Tests used:
[1] = test system: transplanted tumor of human non-small cell lung cancer cell H1299
[2] = test system: transplanted tumor of human prostate cancer cell PC3; experiment: PC3 transplanted tumor in nude mice
[3] = test system: transplanted tumor of human breast cancer cell MDA-MB-231; experiment: MDA-MB-231 transplanted tumor in nude mice
[4] = test system: transplanted tumor of human bladder cancer cell T-24; experiment: T-24 transplanted tumor in nude mice; details: for Tumor Volume (mm3) (d30): d 30
[5] = H1299, 25 mg/kg (low dose) i.g. 30 days
[6] = H1299, 50 mg/kg (medium dose) i.g. 30 days
[7] = H1299, 100 mg/kg (high dose) i.g. 30 days
[8] = PC3, 25 mg/kg (low dose) i.g. 30 days
[9] = PC3, 50 mg/kg (medium dose) i.g. 30 days
[10] = PC3, 100 mg/kg (high dose) i.g. 30 days
[11] = MDA-MB-231, 25 mg/kg (low dose) i.g. 30 days
[12] = MDA-MB-231, 50 mg/kg (medium dose) i.g. 30 days
[13] = MDA-MB-231, 100 mg/kg (high dose) i.g. 30 days
[14] = T-24, high dose (100 mg/kg in method) i.g. 30 days
[15] = T-24, low dose (25 mg/kg in method) i.g. 30 days
[16] = T-24, medium dose (50 mg/kg in method) i.g. 30 days

CCC(=O)O[C@@H]1CC(=O)O[C@H](C)C/C=C/C=C/[C@H](O[C@H]2CC[C@H](N(C)C)[C@@H](C)O2)[C@H](C)C[C@H](CC=O)[C@H](O[C@@H]2O[C@H](C)[C@@H](O[C@H]3C[C@@](C)(O)[C@@H](OC(=O)CC(C)C)[C@H](C)O3)[C@H](N(C)C)[C@H]2O)[C@H]1OC [Isovaleryl spiramycin III, isovaleryl spiramycin III]
Inhibition Rate (tumor growth inhibition rate) [1, 5]: 13.11%
Relative Tumor Proliferation Rate (T/C) [1, 5]: 89.88%
Relative Tumor Volume (RTV) [1, 5]: 11.52 ± 2.51
Tumor Volume (d 1) [1, 5]: 137.58 ± 14.95 mm3
Tumor Volume (d 30) [1, 5]: 1565.97 ± 277.97 mm3
Tumor Weight [1, 5]: 1.51 ± 0.30 g
Inhibition Rate (tumor growth inhibition rate) [1, 6]: 49.38%
Relative Tumor Proliferation Rate (T/C) [1, 6]: 48.11%
Relative Tumor Volume (RTV) [1, 6]: 6.17 ± 2.64
Tumor Volume (d 1) [1, 6]: 137.82 ± 17.12 mm3
Tumor Volume (d 30) [1, 6]: 816.87 ± 299.03 mm3
Tumor Weight [1, 6]: 0.88 ± 0.20 g
Inhibition Rate (tumor growth inhibition rate) [1, 7]: 62.78%
Relative Tumor Proliferation Rate (T/C) [1, 7]: 32.43%
Relative Tumor Volume (RTV) [1, 7]: 4.16 ± 1.90
Tumor Volume (d 1) [1, 7]: 137.09 ± 12.95 mm3
Tumor Volume (d 30) [1, 7]: 557.82 ± 209.73 mm3
Tumor Weight [1, 7]: 0.65 ± 0.17 g
tumor volume and relative tumor volume compared with the model group ([1]; H1299, low, medium and high doses, P<0.05): significantly lower
mouse weight compared with the model group ([1]; mouse, in vivo): no significant changes
Inhibition Rate (tumor growth inhibition rate) [2, 8]: 25.43%
Relative Tumor Proliferation Rate (T/C) [2, 8]: 75.75%
Relative Tumor Volume (RTV) [2, 8]: 14.82 ± 7.55
Tumor Volume (d 1) [2, 8]: 146.91 ± 6.70 mm3
Tumor Volume (d 30) [2, 8]: 1914.85 ± 729.54 mm3
Tumor Weight [2, 8]: 1.40 ± 0.54 g
Inhibition Rate (tumor growth inhibition rate) ([2]; PC3, 25 mg/kg (low dose) i.g. 30 days, listed as isovaleryl spiramycin III): 25.44%
Inhibition Rate (tumor growth inhibition rate) [2, 9]: 40.16%
Relative Tumor Proliferation Rate (T/C) [2, 9]: 55.01%
Relative Tumor Volume (RTV) [2, 9]: 10.76 ± 2.24
Tumor Volume (d 1) [2, 9]: 187.01 ± 50.28 mm3
Tumor Volume (d 30) [2, 9]: 1935.79 ± 228.06 mm3
Tumor Weight [2, 9]: 1.12 ± 0.45 g
Relative Tumor Proliferation Rate (T/C) ([2]; PC3, 50 mg/kg (medium dose) i.g. 30 days, listed as isovaleryl spiramycin III): 55.02%
Inhibition Rate (tumor growth inhibition rate) [2, 10]: 60.37%
Relative Tumor Proliferation Rate (T/C) [2, 10]: 34.57%
Relative Tumor Volume (RTV) [2, 10]: 6.76 ± 1.61
Tumor Volume (d 1) [2, 10]: 155.11 ± 7.98 mm3
Tumor Volume (d 30) [2, 10]: 1051.03 ± 272.23 mm3
Tumor Weight [2, 10]: 0.75 ± 0.25 g
tumor volume and relative tumor volume compared with the model group ([2]; PC3, low, medium and high doses, P<0.05): significantly lower
mouse weight compared with the model group ([2]; mouse, in vivo): no significant changes
Inhibition Rate (tumor growth inhibition rate) [3, 11]: 24.35%
Relative Tumor Proliferation Rate (T/C) [3, 11]: 68.36%
Relative Tumor Volume (RTV) [3, 11]: 10.68 ± 2.47
Tumor Volume (d 1) [3, 11]: 114.53 ± 6.52 mm3
Tumor Volume (d 30) [3, 11]: 1217.28 ± 267.06 mm3
Tumor Weight [3, 11]: 1.76 ± 0.20 g
Inhibition Rate (tumor growth inhibition rate) [3, 12]: 52.01%
Relative Tumor Proliferation Rate (T/C) [3, 12]: 50.12%
Relative Tumor Volume (RTV) [3, 12]: 7.83 ± 2.97
Tumor Volume (d 1) [3, 12]: 112.00 ± 10.40 mm3
Tumor Volume (d 30) [3, 12]: 860.48 ± 286.44 mm3
Tumor Weight [3, 12]: 1.11 ± 0.54 g
Inhibition Rate (tumor growth inhibition rate) ([3]; MDA-MB-231, 50 mg/kg (medium dose) i.g. 30 days, listed as isovaleryl spiramycin III): 21.01%
Inhibition Rate (tumor growth inhibition rate) [3, 13]: 62.93%
Relative Tumor Proliferation Rate (T/C) [3, 13]: 35.27%
Relative Tumor Volume (RTV) [3, 13]: 5.51 ± 2.72
Tumor Volume (d 1) [3, 13]: 115.76 ± 7.04 mm3
Tumor Volume (d 30) [3, 13]: 647.02 ± 338.62 mm3
Tumor Weight [3, 13]: 0.86 ± 0.44 g
tumor volume and relative tumor volume compared with the model group ([3]; MDA-MB-231, low, medium and high doses, P<0.05): significantly lower
mouse weight compared with the model group ([3]; mouse, in vivo): no significant changes
Relative Tumor Proliferation Rate (T/C) [4, 14]: 39.39%
tumor growth inhibition rate [4, 14]: 61.30%
Relative Tumor Proliferation Rate (T/C) [4, 15]: 80.34%
tumor growth inhibition rate [4, 15]: 21.00%
tumor volume and relative tumor volume compared with the model group ([4]; T-24, low, medium and high doses, P<0.05): significantly lower
Relative Tumor Proliferation Rate (T/C) [4, 16]: 62.35%
tumor growth inhibition rate [4, 16]: 44.84%
Inhibition Rate (%) ([4]; dose 25 mg/kg): 21.00%
Relative Tumor Proliferation Rate (T/C) ([4]; dose 25 mg/kg): 80.34%
Relative Tumor Volume (RTV) ([4]; dose 25 mg/kg): 10.61 ± 2.24
Tumor Weight ([4]; dose 25 mg/kg): 1.48 ± 0.43 g
Tumor Volume (mm3) (d 1) ([4]; dose 25 mg/kg): 135.55 ± 18.08 mm3
Tumor Volume (mm3) (d30) ([4]; dose 25 mg/kg): 1427.95 ± 311.97 mm3
Inhibition Rate (%) ([4]; dose 50 mg/kg): 44.84%
Relative Tumor Proliferation Rate (T/C) ([4]; dose 50 mg/kg): 62.35%
Relative Tumor Volume (RTV) ([4]; dose 50 mg/kg): 8.24 ± 0.38
Tumor Weight ([4]; dose 50 mg/kg): 1.03 ± 0.42 g
Tumor Volume (mm3) (d 1) ([4]; dose 50 mg/kg): 136.32 ± 15.54 mm3
Tumor Volume (mm3) (d30) ([4]; dose 50 mg/kg): 1123.28 ± 140.84 mm3
Inhibition Rate (%) ([4]; dose 100 mg/kg): 61.30%
Relative Tumor Proliferation Rate (T/C) ([4]; dose 100 mg/kg): 39.39%
Relative Tumor Volume (RTV) ([4]; dose 100 mg/kg): 5.20 ± 0.71
Tumor Weight ([4]; dose 100 mg/kg): 0.73 ± 0.20 g
Tumor Volume (mm3) (d 1) ([4]; dose 100 mg/kg): 134.53 ± 20.46 mm3
Tumor Volume (mm3) (d30) ([4]; dose 100 mg/kg): 697.48 ± 130.89 mm3
mouse weight compared with the model group ([4]; mouse, in vivo): no significant changes
Body Weight (g) (d1) ([4]; mouse, in vivo, 25 mg/kg): 19.57 ± 0.52 g
Body Weight (g) (d30) ([4]; mouse, in vivo, 25 mg/kg): 25.72 ± 1.53 g
Body Weight (g) (d1) ([4]; mouse, in vivo, 50 mg/kg): 19.61 ± 0.44 g
Body Weight (g) (d30) ([4]; mouse, in vivo, 50 mg/kg): 26.47 ± 0.52 g
Body Weight (g) (d1) ([4]; mouse, in vivo, 100 mg/kg): 19.90 ± 0.58 g
Body Weight (g) (d30) ([4]; mouse, in vivo, 100 mg/kg): 25.05 ± 0.93 g

Source: US20200163984A1, “USE OF ISOVALERYL SPIRAMYCIN I, II AND/OR III IN MANUFACTURING MEDICAMENT FOR TREATING AND/OR PREVENTING TUMOR, AND MEDICAMENT” (SHENYANG FUYANG PHARMACEUTICAL TECHNOLOGY CO., LTD., priority 2017, published 2020)
